In ChEMBL document CHEMBL1201862, “PubChem BioAssay data set” (2004):
Calls of active or inactive are those of the source. Rule as the data show it, for most assays here: actives have a measured EC50 and inactives only a lower limit.

Experiments:
[1] = target: Mitogen-activated protein kinase kinase kinase kinase 2 (Homo sapiens, UniProt Q12851); format: functional;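 also: measured as one member of a kinome-wide kinase panel, with MAP4K2 as the panel entry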
[2] = target: Dual specificity protein kinase CLK4 (Homo sapiens, UniProt Q9HAZ1); format: functional
Sequence of Dual specificity protein kinase CLK4 (Q9HAZ1 whole entry): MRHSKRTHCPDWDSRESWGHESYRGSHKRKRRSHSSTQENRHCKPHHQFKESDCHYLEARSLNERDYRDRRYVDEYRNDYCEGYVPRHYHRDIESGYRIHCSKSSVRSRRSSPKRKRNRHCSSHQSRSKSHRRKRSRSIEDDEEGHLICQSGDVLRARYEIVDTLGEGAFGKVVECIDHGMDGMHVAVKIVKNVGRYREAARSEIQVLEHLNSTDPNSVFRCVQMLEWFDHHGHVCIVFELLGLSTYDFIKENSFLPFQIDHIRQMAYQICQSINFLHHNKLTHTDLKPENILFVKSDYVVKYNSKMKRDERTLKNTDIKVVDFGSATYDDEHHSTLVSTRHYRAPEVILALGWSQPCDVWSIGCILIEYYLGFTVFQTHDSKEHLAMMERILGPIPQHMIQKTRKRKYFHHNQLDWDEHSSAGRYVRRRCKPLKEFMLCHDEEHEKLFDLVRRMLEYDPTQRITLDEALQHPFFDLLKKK

HEK293 = assay: inhibitors of LMP1-driven NF-kB reporter, dose response, cell-based, HEK293, luciferase, cherry-pick (AID 588343); format: functional; conditions: Homo sapiens
[3] = target: Latent membrane protein 1 (Human herpesvirus 4 (strain B95-8), UniProt P03230); assay: TES1-eGFP NF-kB reporter inhibition versus Tet-On dsRED, dose response, selectivity assay for LMP1 NF-kB inhibitor project, imaging, HEK293T, dual-color eGFP/dsRED, cherry-picks (AID 588398); format: functional, cell-based
Sequence of Latent membrane protein 1 (P03230 whole entry): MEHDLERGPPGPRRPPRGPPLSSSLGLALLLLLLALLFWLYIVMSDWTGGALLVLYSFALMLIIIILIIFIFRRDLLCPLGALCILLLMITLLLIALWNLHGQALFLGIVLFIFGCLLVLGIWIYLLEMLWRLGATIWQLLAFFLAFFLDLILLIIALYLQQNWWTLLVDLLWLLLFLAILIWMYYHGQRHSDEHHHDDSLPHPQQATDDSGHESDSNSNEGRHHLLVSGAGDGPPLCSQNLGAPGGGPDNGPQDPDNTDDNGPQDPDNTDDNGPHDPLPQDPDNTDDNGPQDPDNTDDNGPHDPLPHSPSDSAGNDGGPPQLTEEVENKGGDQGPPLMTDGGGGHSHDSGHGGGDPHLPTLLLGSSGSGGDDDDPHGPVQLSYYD

[4] = target: T1, Corticotropin-releasing factor receptor 2/Corticotropin-releasing factor-binding protein (Homo sapiens, UniProt P24387+Q13324); assay: activators of CRF receptor 2 with binding protein – uHTS hits, confirmation (AID 602473); format: functional; conditions: read-out: EC50_Mean
T1 sequence (Q13324 whole entry): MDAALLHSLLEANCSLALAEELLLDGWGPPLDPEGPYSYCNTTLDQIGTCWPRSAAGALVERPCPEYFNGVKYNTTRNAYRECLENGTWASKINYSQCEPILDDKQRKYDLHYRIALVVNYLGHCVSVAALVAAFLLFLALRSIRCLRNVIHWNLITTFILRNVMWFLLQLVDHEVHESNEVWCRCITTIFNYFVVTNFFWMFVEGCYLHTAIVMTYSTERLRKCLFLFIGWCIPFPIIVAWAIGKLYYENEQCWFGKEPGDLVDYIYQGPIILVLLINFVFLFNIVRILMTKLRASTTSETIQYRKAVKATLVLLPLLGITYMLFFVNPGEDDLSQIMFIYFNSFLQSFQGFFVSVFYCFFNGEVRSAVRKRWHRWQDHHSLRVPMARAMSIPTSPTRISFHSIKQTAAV
T1 sequence (P24387 whole entry): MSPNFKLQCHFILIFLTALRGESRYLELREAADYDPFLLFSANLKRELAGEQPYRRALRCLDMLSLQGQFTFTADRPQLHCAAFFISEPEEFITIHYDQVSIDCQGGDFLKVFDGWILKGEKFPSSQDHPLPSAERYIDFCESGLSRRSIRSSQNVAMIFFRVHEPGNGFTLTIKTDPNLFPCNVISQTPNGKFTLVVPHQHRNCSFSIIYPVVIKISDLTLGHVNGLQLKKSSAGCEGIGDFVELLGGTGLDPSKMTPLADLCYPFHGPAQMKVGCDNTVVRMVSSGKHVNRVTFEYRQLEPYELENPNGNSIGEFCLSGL

[5] = Luminescence Cell-Based Dose Confirmation HTS to Identify Inhibitors of Platelet Dense Granule Release. [Related pubchem assays: 1663 (Primary HTS), 1678 (Summary of Project)]; format: functional
cells [6] = assay: cells
[7] = target: Dual specificity tyrosine-phosphorylation-regulated kinase 1A (Rattus norvegicus, UniProt Q63470); format: biochemical, Homo sapiens
[8] = target: T2, Oxysterols receptor LXR-beta (Homo sapiens, UniProt P55055); format: functional, cell-based;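 also: Cell-based luminescence dose-response assay of agonist activity at LXR, run as a confirmatory counterscreen to a daf-12 agonist screen; HEK293 cells with Gal4-LXR fusion and GAL4-driven luciferase reporter; agonist potency from rising luciferase signal of a Gal4-LXR reporter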
T2 sequence (P55055 whole entry): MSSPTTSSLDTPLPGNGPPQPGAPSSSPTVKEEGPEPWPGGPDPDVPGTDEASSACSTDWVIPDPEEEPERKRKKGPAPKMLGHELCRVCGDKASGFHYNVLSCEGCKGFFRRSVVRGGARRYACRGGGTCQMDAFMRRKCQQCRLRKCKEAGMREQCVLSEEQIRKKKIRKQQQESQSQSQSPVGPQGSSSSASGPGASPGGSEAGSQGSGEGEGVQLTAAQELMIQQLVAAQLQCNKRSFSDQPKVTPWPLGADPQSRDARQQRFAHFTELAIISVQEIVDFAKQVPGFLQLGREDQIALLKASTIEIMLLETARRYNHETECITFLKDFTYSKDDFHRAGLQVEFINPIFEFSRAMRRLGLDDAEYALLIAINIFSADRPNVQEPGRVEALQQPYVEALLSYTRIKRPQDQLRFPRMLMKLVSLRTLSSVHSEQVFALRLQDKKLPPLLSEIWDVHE

[9] = ADP-Glo luciferase interference without Dyrk1A, dose response, artefact control for Dyrk1A inhibitor project, biochemical, luminescence, cherry-pick, set 02 (AID 588348)
[10] = target: Luciferin 4-monooxygenase (Photinus pyralis, UniProt P08659); assay: firefly luciferase enzyme inhibitors, dose response, biochemical, luminescence (AID 1891)
Sequence of Luciferin 4-monooxygenase (P08659 whole entry): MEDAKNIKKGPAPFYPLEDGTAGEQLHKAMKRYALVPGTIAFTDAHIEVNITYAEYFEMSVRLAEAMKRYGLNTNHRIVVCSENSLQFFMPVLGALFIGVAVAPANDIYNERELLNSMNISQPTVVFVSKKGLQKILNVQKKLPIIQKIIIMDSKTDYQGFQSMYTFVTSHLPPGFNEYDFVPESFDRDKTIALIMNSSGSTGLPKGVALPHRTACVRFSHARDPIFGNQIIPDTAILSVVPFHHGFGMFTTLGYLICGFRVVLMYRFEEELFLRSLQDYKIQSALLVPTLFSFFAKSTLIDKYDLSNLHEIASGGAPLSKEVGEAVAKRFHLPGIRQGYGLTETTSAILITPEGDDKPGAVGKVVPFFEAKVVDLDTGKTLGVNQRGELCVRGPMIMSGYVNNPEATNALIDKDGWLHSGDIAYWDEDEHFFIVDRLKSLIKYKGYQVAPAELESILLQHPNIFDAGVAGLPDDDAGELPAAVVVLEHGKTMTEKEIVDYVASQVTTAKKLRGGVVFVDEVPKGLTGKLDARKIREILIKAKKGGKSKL

BJ [11] = assay: cytotoxicity toward Ras-transformed BJeLR fibroblasts, dose response, cell-based, alamar blue fluorescence, cherrypicked samples (AID 2631); format: functional; conditions: Homo sapiens;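 also: confirmatory dose-response assay in RAS-dependent BJ fibroblasts engineered with TERT, LT and ST, with cytotoxicity read by fluorescence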
[12] = luciferase reporter signal reduction – luminescence, H4-C neuroglioblastoma cells, dose response (AID 2458); format: functional, cell-based;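 also: H4 neuroglioblastoma cells stably carrying a luciferase reporter gene fusion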
[13] = inhibitors of firefly luciferase expression or activity, dose response, H4 neuroglioma cells, luminescence (AID 1990); format: functional, cell-based
[14] = inhibitors of SNCA 5'UTR-driven reporter translation, confirmation, H4 neuroglioma cells, luminescence (AID 1988); format: functional, cell-based
cells [15] = format: functional, cell-based
[16] = inhibitors of SNCA 5'UTR-driven translation, confirmation, luminescence, H4 neuroglioblastoma cells, dose confirmation (AID 2454); format: functional, cell-based;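 also: H4 neuroglioblastoma cells carrying an alpha-synuclein 5'UTR luciferase reporter; potency for inhibition of the luciferase signal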
[17] = cytotoxicity toward DRD oncogenic fibroblasts, dose response, cell-based, non-viral oncogenic, luminescence (AID 1934); format: functional; conditions: Homo sapiens
BJ [18] = assay: cytotoxicity toward BJ-TERT fibroblasts, dose response, cell-based, RAS-independent, luminescence (AID 1933); format: functional; conditions: Homo sapiens
BJ [19] = assay: cells; format: functional, cell-based; conditions: Homo sapiens
BJ [20] = assay: cytotoxicity toward BJ-TERT-LT-ST fibroblasts, dose response, cell-based, RAS-independent, luminescence (AID 1935); format: functional; conditions: Homo sapiens;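 also: BJ fibroblasts immortalized with TERT plus LT and ST oncogenes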
[21] = Luminescence-based dose response cell-based high throughput screening assay for cytotoxic compounds using the IEC-6 intestinal epithelial cell line. [Related pubchem assays: 1858 (Summary AID.), 1825 (Counterscreen.), 1907 (Confirmation screen.)]; format: functional
[22] = Luminescence Cell-Based Dose Response HTS to Identify Inhibitors of 5'UTR Stem-Loop Driven Prion Protein mRNA Translation in H4 Neuroglioblastoma Cells. [Related pubchem assays: 1827 (Project Summary), 1813 (Primary HTS)]; format: functional
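For IC50 in this document: cell viability measured after two days of compound exposure.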

Sequence of Mitogen-activated protein kinase kinase kinase kinase 2 (Q12851 whole entry): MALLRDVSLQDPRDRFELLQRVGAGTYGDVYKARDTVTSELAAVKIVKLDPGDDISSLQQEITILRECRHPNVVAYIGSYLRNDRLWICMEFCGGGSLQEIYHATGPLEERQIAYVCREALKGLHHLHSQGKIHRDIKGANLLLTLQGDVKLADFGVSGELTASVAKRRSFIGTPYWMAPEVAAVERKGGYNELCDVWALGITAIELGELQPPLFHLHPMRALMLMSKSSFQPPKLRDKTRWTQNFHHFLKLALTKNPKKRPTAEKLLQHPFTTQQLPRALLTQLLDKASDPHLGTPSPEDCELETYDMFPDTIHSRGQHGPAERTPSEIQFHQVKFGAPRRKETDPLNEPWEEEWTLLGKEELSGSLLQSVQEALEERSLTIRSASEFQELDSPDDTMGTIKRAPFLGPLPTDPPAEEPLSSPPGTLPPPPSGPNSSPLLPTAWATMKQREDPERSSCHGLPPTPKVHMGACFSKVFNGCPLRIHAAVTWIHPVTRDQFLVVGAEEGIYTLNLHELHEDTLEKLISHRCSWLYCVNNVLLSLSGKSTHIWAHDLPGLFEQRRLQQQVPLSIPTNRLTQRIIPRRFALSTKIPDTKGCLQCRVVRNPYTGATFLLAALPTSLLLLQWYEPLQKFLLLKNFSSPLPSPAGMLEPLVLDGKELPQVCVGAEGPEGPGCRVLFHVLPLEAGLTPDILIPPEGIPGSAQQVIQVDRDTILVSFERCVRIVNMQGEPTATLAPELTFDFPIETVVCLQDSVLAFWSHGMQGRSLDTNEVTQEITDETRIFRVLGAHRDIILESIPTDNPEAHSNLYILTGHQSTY

O=C1CC(c2ccc(Cl)cc2Cl)Cc2[nH]c3ccc(Cl)cc3c(=O)c21 (stereo not drawn)
active: Ki [1] 5.01 µM | Ki [2] 7.94 µM

CC(C)(C)c1ccc(C(=O)N2CCC(=O)N(C(CO)Cc3ccccc3)CC2)cc1 (stereo not drawn)
inactive: EC50 [4] > 53 µM
active: AC50 (HEK293) 173 µM | AC50 [3] 347 µM

Cc1ccccc1C(=O)O/N=C(\N)c1ccccc1
inactive: EC50 (cells [6]) > 67.5 µM | EC50 [8] > 67.5 µM
active: EC50 [5] 2.72 µM | AC50 [7] 62.5 µM | AC50 [9] 60.9 µM | EC50 [10] 3.42 µM

C#CCOc1ccc(C2C3=C(O)OCC3=Nc3cc4c(cc32)OCO4)cc1OC (stereo not drawn)
active: EC50 (BJ [11]) < 104 nM | EC50 [12] 234 nM | EC50 [13] < 100 nM | EC50 [14] < 100 nM | EC50 (cells [15]) 371 nM | EC50 [16] 231 nM | EC50 (BJ [20]) 942 nM | IC50 [21] 47.1 nM | EC50 [22] < 100 nM
inconclusive: EC50 [17] 900 nM | EC50 (BJ [18]) 3.14 µM | EC50 (BJ [19]) 2.72 µM
